From patent US10106577B2, “Agonists of neurotrophin receptors and their use as medicaments” (BIONURE FARMA, S.L., priority 2010, dated 2018)
Each block holds one molecule with its values, some of them ahead of it.

Legend:
[1] = PAMPA model of passive BBB permeability; assay type: in vitro ADME; details: PAMPA; passive transport; pH 7.4; 18 hrs; read-out: Effective permeability (pe), PAMPA
Protocol: PAMPA is used as an in vitro model of passive BBB permeability. An artificial membrane immobilized on a filter is placed between a donor and acceptor compartment. At the start of the test, a drug is introduced in the donor compartment. Following the permeation period, the concentration of the drug in the donor and acceptor compartments are measured using UV spectroscopy. Therefore the permeability of any compound with a UV chromophore can be determined by this method.
The tested compound stock solutions were diluted 200-fold in universal buffer at pH 7.4 and added to the donor wells. The filter membrane was coated with PBL in dodecane and the acceptor well was filled with pH 7.4 buffer. The acceptor filter plate was carefully put on the donor plate to form a ‘sandwich’ (consisting of the aqueous donor with test the compound on the bottom, an artificial lipid membrane in the middle, and an aqueous acceptor on the top). The test compound diffused from the donor well through the lipid membrane and into the acceptor well. The ‘sandwich’ was left undisturbed for 18 hrs while the permeation occurred. The concentration of the test compound in the acceptor, the donor, and the reference wells was determined using the UV plate reader. Effective permeability (Pe) of each compound was calculated by using the pION PSR4p software. Samples were analyzed in triplicate and the average of the three runs was reported. Quality control standards were run with each sample set to monitor the consistency of the analysis set.

[2] = tested on: PC12 cells; assay: Receptor activation assay (PC12 differentiation with anti-TrkA antibody); assay type: cell-based
Protocol: The hypothesis that G79, G80, and G81 can act through the binding to the extracellular portion of TrkA (binding site) and activate the tyrosine kinase receptor was tested by treating the PC12 cells with the small chemicals in combination with the antibody anti-TrkA or the K252a, a tyrosine kinase inhibitor. For this purpose PC12 cells were plated into collagen-coated 24-wells plates with 2.5% FBS and after 72 hrs were incubated with the small molecules alone or in combination with anti-TrkA antibody (AbCam, 1:2000) or K252a. NGF (100 ng/ml) was used as control and added alone or in combination with anti-TrkA antibody or K252a. The number of differentiated cells was evaluated after three days of treatment. The cell count was done in three randomly selected fields with 100 cells.

[3] = tested on: PC12 cells; assay: Dose response differentiation assay in PC12 cell line; assay type: cell-based; details: 100 ng/ml; after 3 days of treatment
Protocol: Stock of PC12 cultures were maintained in Ham's F12 medium supplemented with 2.5% fetal bovine serum (FBS), 15% of horse serum (HS) and 1% penicillin/streptomycin. The cell culture was maintained in 5% CO2 at 37° C.
PC12 cell differentiation was assessed by treating the cells with all the test compounds (G79, G80, and G81) at different testing concentration (2-20-100 ng/ml and 2-20-50 μg/ml). The cells were first plated into collagen-coated 24-wells plates with 2.5% FBS in the medium to be de-differentiated. After 72 hrs, the test compounds were added and NGF (Sigma Aldrich; 100 ng/ml) as positive control of differentiation. The number of differentiated cells, with neurite processes greater than two cell bodies in length, is counted after 3 days of treatment. The cell count is done in three randomly selected fields with 100 cells.

[4] = tested on: PC12 cells; assay: Secretagogue activity assay (PC12 differentiation with antibody anti-NGF); assay type: cell-based
Protocol: To assess if the tested compounds, G79, G80, and G81, act as secretagogues, inducing neurotrophic activity through the synthesis of NGF, PC12 cells were plated into collagen-coated 24-wells plates with only 2.5% FBS and after 72 hrs the cells were treated with the tested compounds (each one at 100 ng/ml) together with antibody anti-NGF (1 μg/ml, AbCam). After three days of treatment, the differentiation was evaluated. The cell count was done in three randomly selected fields with 100 cells.

[5] = tested on: retinal ganglion cells (RGC); assay: Glaucoma model, count of retinal ganglion cells; assay type: in vivo, Sprague Dawley rats; details: first experiment; eye drops, NGF 200, G79 200 and 400 μg/ml
Protocol: 12 Sprague Dawley rats (4 months of age) were anesthetized with […] and subjected to hypertonic saline solution injection into the episcleral vein of the right eye. Intraocular pressure (IOP) was measured before the operation and was monitored one time a week using a TonoLab for 7 weeks. Treatment with G79 was begun one week after glaucoma induction by topical application at the conjunctive. Two different experiments were performed.
In the first experiment, G79 was dissolved into physiological solution and was used at two different concentration (200 μg/ml and 400 μg/ml). NGF was used as positive control (200 μg/ml) and the physiological solution, used to dissolve all the molecules, was subministered as placebo. The animals were divided into 4 groups (3 animals in each group): glaucoma-G79 200 μg/ml; glaucoma-G79 […]; glaucoma-NGF; glaucoma-placebo. The left eye was used as the control without glaucoma. In both experiments, seven weeks after glaucoma induction, animals were sacrificed by overdose of anaesthetic and their eyes were taken and fixed in 4% of PFA. The eyes were included in paraffin and cut into 20 μm sections to be used for histological studies (hematoxilin-eosin staining). The cell count of the number of retinal ganglion cells (RGC) was performed randomly in ten different fields for each eye.
Rats were injected with a hypertonic solution in the eye that induced high intraocular pressure for five weeks. Animals were treated with eye drops of NGF ([…]), G79 ([…]) or placebo every day for five weeks. Animals with glaucoma and treated with placebo (saline) have a significant decrease in the number of retinal ganglion cells compared with control.
In the second experiment, G79 at the concentration of 200 μg/ml was used. The objective of this second experiment was to compare the efficacy of G79 to Timolol, the most common therapy for glaucoma that works by decreasing the intraocular pressure. Also in this experiment, a combination treatment with G79 and Timolol was performed. […]

[6] = tested on: PC12 cells; assay: Signalling inhibition assays (PC12 differentiation with LY294002 or PD98059); assay type: cell-based
Protocol: To evaluate if the transduction pathway induced by G79, G80, and G81 involves AKT and ERK activation, PC12 cell were treated with the test compounds in the presence of LY294002, an inhibitor of PI3K (an upstream activator of AKT) and PD98059, an inhibitor of MAPK kinase (an upstream activator of ERK). For this purpose, PC12 cells were plated into collagen-coated 24-wells plates with 2.5% FBS and after 72 hrs the cells were treated with the small molecules in combination with LY294002 (Sigma Aldrich, 10 μM) or PD98059 (Sigma Aldrich, 50 μM). NGF (100 ng/ml) was used as control and added alone or in combination with the inhibitors.

[7] = tested on: PC12 cells; assay: Synergistic activity assay (PC12 differentiation in combination with NGF); assay type: cell-based; details: NGF alone 100 ng/ml
Protocol: To evaluate if the small molecules G79, G80, and G81 interfere with the maximal activity of NGF or lead to additive effects, PC12 cells were plated into collagen-coated 24-wells plates with 2.5% FBS and treated after 72 h with the small chemicals (each one at 100 ng/ml) in combination with NGF at the concentration of 100 ng/ml. In the same experiment PC12 cells were treated with the small molecules or NGF alone, as controls. The number of differentiated cells was evaluated after three days of treatment. The cell count was done in three randomly selected fields with 100 cells.

[8] = tested on: NSC-34 cells; assay: In vitro model of ALS, serum deprivation of motoneuron-like cells (MTT); assay type: cell-based, mouse; details: G-CSF 2 μg/ml; serum deprivation 48 h
Protocol: Mouse motoneuron-like cells NCS-34 were cultured in DMEM (Gibco) supplemented with 10% heat inactivated FBS and 1% penicillin/streptomycin. The cell culture was maintained in a humidified atmosphere of 95% air and CO2 at 37° C.
The nutritional deprivation stress in motorneurons was conducted as described previously in Masahito T. et al., J. Neuropathol. Exp. Neurol. 65(8):816-825 (2006). To assess the effect of trophic stress condition on ALS, the presence of apoptosis was investigated using serum deprivation. NSC-34 cells were seeded in 24-well poly-lysinated plates at 30,000 cells/well and preincubated for 24 h in DMEM plus 10% FBS with various doses of G79, G80, and G81 (20 ng/ml, 100 ng/ml, 2 μg/ml, 20 μg/ml, 50 μg/ml), and G-CSF (2 μg/ml) or BDNF (20 ng/ml) which both were used as positive controls (Masahito T. et al., ibid; Elliot J. L., Neurobiology of Disease 6:310-320 (1999)). Then, the medium was removed and replaced with fresh DMEM without FBS. After 48 h, cell viability was assayed by MTT assay, as described previously.

Papp at 18 h [1]: 10.3 ×10⁻⁶ cm/s
Molecule: NC(=O)N1c2ccccc2C=Cc2ccccc21 [carbamazepine]

Papp at 18 h [1]: 11.5 ×10⁻⁶ cm/s
Molecule: CC(C)NCC(O)COc1cccc2ccccc12 (stereo not shown) [propanolol]

Molecule: NGF: homodimeric protein from the neurotrophin family; positive control of differentiation and survival
number of differentiated cells ([2]; in combination with anti-TrkA antibody (1:2000)): 12.8±6.3
number of differentiated cells ([2]; treatment alone): 20.7±7.1
number of differentiated cells in a field of 100 cells [3]: 16.1±1.9 cells
number of differentiated cells for each field ([4]; 100 ng/ml together with antibody anti-NGF (1 μg/ml)): 12.8±6.3
number of differentiated cells for each field ([4]; 100 ng/ml, treatment alone): 20.7±7.1
protection of retinal ganglion cells (number of RGC vs glaucoma-placebo) [5]: significant protection of the ganglion cells
number of differentiated cells ([6]; plus LY294002 (10 μM), inhibitor of PI3K): 6.8±2.7
number of differentiated cells ([6]; plus PD98059 (50 μM), inhibitor of MAPK kinase): 2.1±1.9
number of differentiated cells ([6]; treatment alone): 20.7±7.1
number of differentiated cells [7]: 20±7.1

B1: G-CSF: positive control (2 μg/ml) in the in vitro model of ALS (protein, UniProt P09919 31-207, looked up)
Granulocyte …: TPLGPASSLPQSFLLKCLEQVRKIQGDGAALQEKLVSECATYKLCHPEELVLLGHSLGIPWAPLSSCPSQALQLAGCLSQLHSGLFLYQGLLQALEGISPELGPTLDTLQLDVADFATTIWQQMEELGMAPALQPTQGAMPAFASAFQRRAGGVLVASHLQSFLEVSYRVLRHLAQP
cell viability, percentage relative to the control without stress [8]: 76.50±8.3%
